Measurements reported in PMC3435407, “αA-Crystallin–Derived Mini-Chaperone Modulates Stability and Function of Cataract Causing αAG98R-Crystallin” (PLoS ONE, 2012).
Non-standard residues stand in square brackets, D forms with d. No end group written: not given here. *: point of attachment. Biotin = O=C1N[C@H]2[C@H](CS[C@H]2CCCCC(=O)*)N1; Bpa = N[C@@H](Cc1ccc(C(=O)c2ccccc2)cc1)C(=O)O

What was measured:
α-crystallin = tested on: α-crystallin; design: method as in 2 sources, one per row (each row's own in cited_ref): ref [43] = [43]; PMID 8549682; doi:10.1016/s0014-4835(05)80136-8; 43 Sharma KK , Ortwerth BJ ( 1995 ) Effect of cross-linking on the chaperone-like function of alpha crystallin . Exp Eye Res 61 : 413 – 421 . 8549682 10.1016/s0014-4835(05)80136-8 ||| ref [44] = [44]; PMID 15199188; doi:10.1073/pnas.0403532101; 44 Kantorow M , Hawse JR , Cowell TL , Benhamed S , Pizarro GO , et al ( 2004 ) Methionine sulfoxide reductase A is important for lens cell viability and resistance to oxidative stress . Proc Natl Aca; settings: α-crystallin in water-insoluble fraction of lens proteins; ref [43]; cited from earlier work
wild-type α-crystallin = settings: modulator in 10- to 30-fold higher concentrations than α-crystallin; ref [39]–[42]; cited from earlier work
Excerpt: In those studies the modulator was used in 10- to 30-fold higher concentrations than the α-crystallin [39]–[42] and the conformational changes in α-crystallin in the presence of the modulator was considered to be responsible for the activity enhancement.

αAG98R [1] = biological target: T1, αAG98R (Homo sapiens, UniProt P02489, G98R); assay: Photo-crosslinking, SDS-PAGE and western blot; format: binding; settings: for covalent association with αAG98R subunits: photolyzed, SDS-PAGE and western blot
T1 construct: the full-length human αA-crystallin cDNA cloned into pET-23d (+) vector; made in house; host or cells: E. coli BL21(DE3)pLysS
Description: (§1) Biotinyl-αA-mini-chaperone-Bpa peptide (200 µg) was incubated with 200 µg of αAG98R crystallin in buffer, pH 7.2, at 37°C for 1 hr. Subsequently, the sample was filtered in a Microcon 10 kDa cut of filter (Millipore, Bedford, MA) to remove free peptides. The sample was photolyzed for 30 min, at 4°C, using a UV lamp (365 nm) held at a distance of 7 cm from the sample. The photolyzed sample was desalted using C18 zip tip spin columns (Thermo Fisher Scientific, Rockford, IL), as per the manufacturer's protocol, and the bound protein was eluted in 70% acetonitrile. […] The UV-photolyzed sample was subjected to SDS-PAGE and western blot analysis using antibody against biotin.
Figure 6 SDS-PAGE analysis of αAG98R cross-linked with biotinylated Bpa-mini-αA. Incubation, photolysis and SDS-PAGE (lanes 1–3), western blot (lanes 4 and 5) analysis were performed as described under methods. Lane 1, photolysed αAG98R; lane 2, αAG98R incubated with biotinyl-Bpa mini-αA and photolyzed; lane 3 mol wt markers. […] This band was absent in non-photolyzed samples (data not shown).Lanes 4 and 5 western blot of lanes 1 and 2 respectively. […] The figure is representative of 3 independent experiments.

αAG98R [2] = biological target: T1, αAG98R; assay: Photo-crosslinking, MALDI-TOF/TOF MS; format: binding; settings: photolyzed; restated in the discussion
Description: as §1
Figure 7 MALDI-TOF MS spectrum of αAG98R photolyzed after incubation with or without biotinyl-Bpa-mini-αA-crystallin. A, αAG98R after photolysis; B, αAG98R photolyzed after incubation with biotinyl-Bpa mini-αA. The αAG98R-Bpa mini-αA complex with m/z 22592 is indicated by an arrow. Mass spectrometric analysis confirms the 1∶1 interaction of mini-chaperone with αAG98R monomer. The figure is representative of 3 independent experiments.

[3] = tested on: alcohol dehydrogenase (ADH); assay: ADH aggregation assay, heat-denatured (chaperone-like activity); format: biochemical; settings: peptide alone, 43°C
Description: (§2) Aggregation assay was performed in 1 ml 50 mM phosphate buffer containing 150 mM NaCl and 100 mM EDTA at 43°C. The chaperone activity of Biotin-[…](Bpa)[…] as well as a Pro-substituted mini-chaperone ([…]) was also measured by ADH aggregation assay. The extent of aggregation was estimated by monitoring the light scattering at 360 nm using a Shimadzu UV-VIS spectrophotometer equipped with a temperature-controlled multi-cell transporter.
Similar to our earlier observation, αAG98R suppressed ADH aggregation during the early part of the 2 hr assay but the assay mixture started to scatter light after 60 min (Figure 5A).
Figure 5 Effect of the addition of αA-crystallin–derived mini-chaperone on the chaperone-like activity of αAG98R against ADH aggregation. […] The figures represent the typical data obtained multiple times with WT-αA-crystallin and stabilized αAG98R.

αAG98R [4] = biological target: T1, αAG98R; assay: Recovery of soluble αAG98R after incubation at 43°C (gel filtration, TSK G5000PWXL); format: biochemical; settings: 75 µg αAG98R
Description: (§3) Samples were injected on to a TSK G5000PWXL (Tosoh Bioscience, Montgomeryville, PA) size-exclusion column equilibrated with 50 mM sodium phosphate buffer containing 150 mM NaCl (pH 7.2). The flow rate was set to 0.75 ml/min. The column was attached to a HPLC system connected with UV and refractive index detectors and coupled to a static multi-angle laser light scattering (DAWN-EOS) and dynamic quasi-elastic light scattering detectors (Wyatt Technology, Santa Barbara, CA). The molar mass (Mw), hydrodynamic radius (Rh) and polydispersity index (PDI) were determined using ASTRA (5.3.2) software developed by Wyatt Technology.
(§4) We know from previous studies thatαA-mini-chaperone suppresses the aggregation and precipitation of denaturing proteins, [29], [30]. […] The samples were centrifuged to remove any precipitate formed during incubation, and the supernatant was analyzed by TSKG5000 PWXL gel filtration column connected to a multi-angle laser light scattering (DAWN-EOS) and dynamic quasi-elastic light scattering detectors. […] The first peak corresponded to the oligomeric form of αAG98R, whereas the second peak represented dissociated subunits of the mutant protein. […] The hydrodynamic radius (Rh) of the stabilized αAG98R increased from 15.3 nm to 16.4 nm, consistent with increase in molar mass.

αAG98R [5] = biological target: T1, αAG98R; assay: αAG98R recovery with different amounts of mini-chaperone (43°C, 30 min); format: binding; settings: 1∶2 ratio (mol/mol) of αAG98R to mini-αA, 10 µM αAG98R
[6] = tested on: alcohol dehydrogenase (ADH); assay: EDTA-induced ADH aggregation assay at 37°C; format: biochemical; settings: 250 µg ADH, 50 µg peptide, representative of two experiments
Description: as §2
The EDTA-induced aggregation of ADH assay was performed at 37°C as described under methods. In each experiment 250 µg of ADH was used. […] The figure is representative of two independent experiments. (TIF) Click here for additional data file.

αAG98R [7] = biological target: T1, αAG98R; assay: Thermal aggregation monitored by light scattering at 360 nm; format: biochemical; settings: 750 µg αAG98R, 1.7∶1 (mol/mol) ratio, 90 min, representative of 3 experiments
Description: Light scattering was monitored at 360 nm for 90 min using a spectrophotometer. […] Because αAG98R is a structurally perturbed protein [20], [21], we hypothesize that the mini-chaperone interacted with mutant αAG98R and prevented aggregation and light scattering. […] The aggregation and precipitation of αAG98R also occurred at 37°C but at a slower rate. […] Nearly 80% of αAG98R was recovered when the incubation was carried out with 1∶2 ratio (mol/mol) of αAG98R to mini-αA-.
The protein samples (750 µg) were incubated in 1 ml PO4 buffer, pH 7.2 at 43°C and light scattering was continually monitored at 360 nm for 90 min in a spectrophotometer. […] The figure is representative of 3 independent experiments.

[8] = tested on: ADH, citrate synthase, insulin and α-lactalbumin; design: method as in PMID 10660525, PMID 11350603, PMID 11563692; settings: ref [26], [29], [30]; cited from earlier work
[9] = tested on: αAG98R / wild-type αA-crystallin; assay: Far-UV CD thermal denaturation (218 nm); format: physicochemical, human; settings: 100 µg/400 µl, 10 mM phosphate pH 7.2, listed as αA-crystallin mini-chaperone = αAG98R incubated with it
Description: Circular dichroism (CD) spectropolarimeter, J815 (Jasco, Easton, MD), equipped with a temperature control system, was employed to record CD spectra. Far-UV CD measurements were carried out over the wavelength range of 190 to 250 nm with bandwidth 0.5 nm, scan speed 10 nm/min using 0.1-cm path length cuvettes. Protein samples were prepared in 10 mM sodium phosphate buffer (pH 7.2). Spectra are the average of five scans. Buffer signal was subtracted prior to reporting the data. Thermal denaturation data were collected from 25°C to 45°C, with protein concentration of 100 µg/400 µl. Thermal denaturation experiments were performed with a heating rate of 1°C/min, and CD signals at 218 nm were used to determine transition midpoints. Near-UV CD spectra were recorded using a protein sample of 1.5 mg/ml in the buffer used for far-UV studies.
Proteins, 100 µg, were prepared in 400 µl of10 mM phosphate buffer, pH 7.2, and the sample temperatures were slowly raised from 25 to 48°C in 2°C steps, equilibrated for 5 min at each temperature prior to far-UV CD measurement. Molar ellipticity changes at 218 nm were plotted to determine relative stability of samples. […] The spectra were recorded using a protein sample of 1.5 mg/ml. The profile shown is the average of 5 scans.

[10] = tested on: αAG98R / wild-type αA-crystallin oligomer; assay: Multi-angle/quasi-elastic light scattering of αA-crystallin oligomers; format: physicochemical, human; settings: 43°C, wild-type protein
Description: as §3, §4

T1 sequence (P02489 whole entry G98R): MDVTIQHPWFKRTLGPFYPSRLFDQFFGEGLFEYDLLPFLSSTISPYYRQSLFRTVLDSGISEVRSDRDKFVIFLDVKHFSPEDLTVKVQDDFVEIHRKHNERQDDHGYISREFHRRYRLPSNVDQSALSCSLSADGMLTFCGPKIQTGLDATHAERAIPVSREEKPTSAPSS

O[C@@H](CS)[C@@H](O)CS (racemic) [dithiothreitol (DTT), dithiothreitol]
restoration of chaperone activity by DTT (α-crystallin): restores some of the lost chaperone activity

Nc1ncnc2c1ncn2[C@@H]1O[C@H](COP(=O)(O)OP(=O)(O)OP(=O)(O)O)[C@@H](O)[C@H]1O [ATP]
modulation of wild-type α-crystallin chaperone activity (wild-type α-crystallin): Modulation of wild-type α-crystallin chaperone activity

N=C(N)NN [aminoguanidine]
modulation of wild-type α-crystallin chaperone activity (wild-type α-crystallin): Modulation of wild-type α-crystallin chaperone activity

N=C(N)NCCC[C@H](N)C(=O)O [arginine]
modulation of wild-type α-crystallin chaperone activity (wild-type α-crystallin): Modulation of wild-type α-crystallin chaperone activity

N[C@@H](CCC(=O)N[C@@H](CS)C(=O)NCC(=O)O)C(=O)O [glutathione]
modulation of wild-type α-crystallin chaperone activity (wild-type α-crystallin): Modulation of wild-type α-crystallin chaperone activity

Biotin-DFVIFLDVKH[Bpa]SPEDLTVK [biotinyl-Bpa-mini-chaperone] [listing 1 of 2 here]
αAG98R photo-crosslinked (image analysis of stained gel) (αAG98R [1]; 200 µg peptide + 200 µg αAG98R, pH 7.2, 37°C, 1 hr, photolysis 365 nm 30 min 4°C, representative of 3 experiments): about 10%
covalent association with αAG98R subunits (αAG98R [1]; representative of 3 experiments): covalent association of αA-mini-chaperone with αAG98R subunits was observed
covalent association with αAG98R subunits (αAG98R [1]; representative of 3 experiments, listed as biotinyl-Bpa mini-αA): confirms the binding of a mini-chaperone to a subunit of αAG98R
Bpa-peptide incorporated into αAG98R subunit (αAG98R [2]): about 10%

Biotin-DFVIFLDVKH[Bpa]SPEDLTVK [biotinyl-Bpa-mini-chaperone] [listing 2 of 2 here]
binding stoichiometry (SDS-PAGE/western blot) (αAG98R [1]; photolyzed mixture): one peptide was incorporated into one subunit of αAG98R
chaperone activity of Bpa peptide (heat-denatured ADH) [3]: retained chaperone activity
chaperone activity of Bpa peptide (heat-denatured ADH) ([3]; listed as biotin-DFVIFLDVKH(benzoylphenylalanine)SPEDLTVK): active in suppressing the aggregation of heat-denatured ADH

DFVIFLDVKHFSPEDLTVK [αA-mini-chaperone]
mutant protein recovered in soluble form (percent) (αAG98R [4]; with or without 10 µg αA-mini-chaperone, 1 hr, listed as αAG98R = absence of mini-chaperone): 79%
recovery of αAG98R (αAG98R [5]): ~80%

DFVPFLDVKHFSPEDLTVK [Pro-substituted mini-chaperone]
effect on monomeric peak / dissociation / precipitation of αAG98R (αAG98R [4]; gel filtration TSK G5000PWXL): did not prevent the precipitation of αAG98R
chaperone activity of Pro-substituted peptide (EDTA-induced ADH aggregation) [6]: no chaperone activity
chaperone activity of Pro-substituted peptide (EDTA-induced ADH aggregation) ([6]; listed as αA-mini-chaperone (pro)): Pro-substitution abolishes the chaperone activity of mini-chaperone
suppression of αAG98R aggregation, 43°C (αAG98R [7]): failed to suppress precipitation of the mutant protein

KFVIFLDVKHFSPEDLTVK [αA70-88, 19 amino acid peptide representing the chaperone site in αA-crystallin]
suppression of aggregation of denaturing ADH, citrate synthase, insulin and α-lactalbumin; chaperone-like function [8]: functions like a molecular chaperone

wild-type αA-crystallin: recombinant wild-type human αA-crystallin expressed in E. coli
temperature up to which / above which 218 nm ellipticity is stable / changes [9]: 40 °C
oligomeric size and molar mass change upon incubation [10]: oligomeric size and molar mass did not change
